These results are taken from ChEMBL document CHEMBL1201862, “PubChem BioAssay data set” (2004).

Calls of active or inactive are those of the source.

In general, IC50 refers to the midpoint of a concentration-inhibition curve. As usually defined, the EC50 is the concentration at which the effect is half-maximal. By CC50 is commonly meant the concentration at which the toxic effect on the cells reaches its halfway point.

One experiment has as its system INS1. As to the kind of experiment: INS-1E survival protection against cytokine death – cell-based, luminescence, retest, dose response (AID 449756).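 Also: cell death triggered by IL-1 beta plus TNF-alpha plus IFN-gamma mixture; protective hits raise ATP signal compared with cytokine alone wells.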 In kind it is functional. Conditions: Rattus norvegicus.
The subject of experiment [1] is HEK293. As to the kind of experiment: cells. Conditions: Homo sapiens. Type of experiment: functional, cell-based.
For experiment [2], the system named is HEK293. As to the kind of experiment: EBV LMP1 TES2 canonical NF-kB signalling blockers – cell-based, HEK293, luciferase, cherry-pick, dose response (AID 588343). In kind it is functional. As to conditions: Homo sapiens.
A short description of experiment [3]: cells. Type of experiment: functional, cell-based.
The nature of experiment [4]: reduction of Shn3 3'UTR-driven luciferase in osteoblasts – cell-based, Clone20 osteoblasts, firefly luciferase, cherry-picked, dose response (AID 624132).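 Also: firefly luciferase luminescence from reporter carrying the Shn3 3'UTR in osteoblasts.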 Type of experiment: functional.
A further experiment concerns the target Nonstructural protein 1 (Influenza A virus, UniProt Q194T2). Type of experiment: functional, Influenza A virus (A/California/07/2009(H1N1)).
Experiment [5] relates to HEK293. As to the kind of experiment: cells. Type of experiment: functional, cell-based. As to conditions: Homo sapiens. This is another data set of the same source.
Experiment [6] concerns HEK293. As to the kind of experiment: inhibition of NOD1-driven NF-kB reporter – cell-based, luminescence, uHTS, primary screen (AID 1578). As to conditions: Homo sapiens. In kind it is functional.
A short description of experiment [7]: non-specific 3'UTR reporter inhibition in Clone20-Shn3RL – cell-based, Renilla luciferase, cherry-picked, counter-screen for Shn3 inhibitor project, dose response (AID 624133). In kind it is functional. (In general: The purpose of a counterscreen is to sort out artefacts and off-target activity.)
For experiment [8], the system named is HEK293. The experiment is described as follows: cells. In kind it is functional, cell-based. Conditions: Homo sapiens. The source holds these as a separate data set.
The target of experiment [9] is Nucleotide-binding oligomerization domain-containing protein 2 (Homo sapiens, UniProt Q9HC29). As to the kind of experiment: inhibition of NOD2-driven NF-kB reporter – cell-based, luminescence, uHTS, HEK293 (AID 1566). In kind it is functional.
Nucleotide-binding oligomerization domain-containing protein 2, sequence (Q9HC29 whole entry, the tested form may be a part): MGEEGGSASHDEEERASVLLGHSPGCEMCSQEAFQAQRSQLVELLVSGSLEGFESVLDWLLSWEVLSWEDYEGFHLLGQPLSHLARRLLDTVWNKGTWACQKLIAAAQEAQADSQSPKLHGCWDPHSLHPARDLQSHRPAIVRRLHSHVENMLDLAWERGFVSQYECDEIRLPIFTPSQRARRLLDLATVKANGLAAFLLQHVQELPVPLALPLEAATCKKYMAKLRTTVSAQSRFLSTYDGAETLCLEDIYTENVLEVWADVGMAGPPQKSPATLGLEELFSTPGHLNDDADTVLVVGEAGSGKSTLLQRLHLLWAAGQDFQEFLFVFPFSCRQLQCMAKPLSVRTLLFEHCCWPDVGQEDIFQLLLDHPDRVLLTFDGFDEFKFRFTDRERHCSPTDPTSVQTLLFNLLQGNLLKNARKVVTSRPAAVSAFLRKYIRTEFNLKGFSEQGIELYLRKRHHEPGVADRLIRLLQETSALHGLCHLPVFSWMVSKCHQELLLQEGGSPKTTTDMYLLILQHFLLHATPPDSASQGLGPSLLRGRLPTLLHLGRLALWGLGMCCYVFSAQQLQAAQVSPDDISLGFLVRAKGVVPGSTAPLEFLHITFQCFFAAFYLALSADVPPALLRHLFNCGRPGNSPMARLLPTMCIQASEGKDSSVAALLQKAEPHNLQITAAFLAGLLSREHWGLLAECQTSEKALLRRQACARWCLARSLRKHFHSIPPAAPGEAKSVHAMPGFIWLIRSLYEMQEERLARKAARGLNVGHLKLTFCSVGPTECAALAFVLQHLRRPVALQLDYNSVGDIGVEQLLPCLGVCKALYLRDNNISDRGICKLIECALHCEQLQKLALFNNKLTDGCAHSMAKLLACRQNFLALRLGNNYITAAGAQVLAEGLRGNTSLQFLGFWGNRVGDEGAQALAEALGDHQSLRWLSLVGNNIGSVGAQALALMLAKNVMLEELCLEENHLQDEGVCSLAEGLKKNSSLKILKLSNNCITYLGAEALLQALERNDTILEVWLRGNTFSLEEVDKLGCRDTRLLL
Experiment [10] can be described thus: cells. Type of experiment: functional, cell-based. This is another data set of the same source.
Experiment [11] relates to BJ. As to the kind of experiment: BJ-TERT fibroblast viability loss – cell-based, RAS-independent, luminescence, dose response (AID 1933). In kind it is functional. Conditions: Homo sapiens.
The test system of experiment [12] is HEK293. The experiment is described as follows: NOD2 signaling inhibitors in MDP-stimulated cells, cell-based, uHTS, luminescence (AID 2001). In kind it is functional. As to conditions: Homo sapiens.
The nature of experiment [13]: DRD fibroblast viability loss – cell-based, non-viral oncogenic, luminescence, dose response (AID 1934). In kind it is functional. As to conditions: Homo sapiens.
For experiment [14], the system named is BJ. As to the kind of experiment: cells. Type of experiment: functional, cell-based. As to conditions: Homo sapiens.
Experiment [15] in a line: Luminescence-based dose response cell-based high throughput screening assay for cytotoxic compounds using the IEC-6 intestinal epithelial cell line. [Related pubchem assays: 1858 (Summary AID.), 1825 (Counterscreen.), 1907 (Confirmation screen.)]. Type of experiment: functional.
Experiment [16] deals with BJ. As to the kind of experiment: BJ-TERT-LT-ST fibroblast viability loss – cell-based, RAS-independent, luminescence, dose response (AID 1935).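 Also: BJ fibroblasts immortalized with TERT plus LT and ST oncogenes.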 Conditions: Homo sapiens. In kind it is functional.
Experiment [17] can be described thus: loss of viability in HepG2 cells – cell-based, CellTiter-Glo, cherry-picked, cytotoxicity control for Shn3 inhibitor project, dose response (AID 624134). Type of experiment: functional. (In ATP-based viability assays light output follows the ATP content of the culture.)
The target in experiment [18] is Voltage-gated inwardly rectifying potassium channel KCNH2 (Homo sapiens, UniProt Q12809). As to the kind of experiment: concentration-dependent hERG rescue from blockers – cell-based, thallium flux, dose response (AID 2121). Type of experiment: ADME. A general note: The hERG channel carries a current that helps repolarise heart muscle cells.
Voltage-gated inwardly rectifying potassium channel KCNH2, sequence (Q12809 whole entry): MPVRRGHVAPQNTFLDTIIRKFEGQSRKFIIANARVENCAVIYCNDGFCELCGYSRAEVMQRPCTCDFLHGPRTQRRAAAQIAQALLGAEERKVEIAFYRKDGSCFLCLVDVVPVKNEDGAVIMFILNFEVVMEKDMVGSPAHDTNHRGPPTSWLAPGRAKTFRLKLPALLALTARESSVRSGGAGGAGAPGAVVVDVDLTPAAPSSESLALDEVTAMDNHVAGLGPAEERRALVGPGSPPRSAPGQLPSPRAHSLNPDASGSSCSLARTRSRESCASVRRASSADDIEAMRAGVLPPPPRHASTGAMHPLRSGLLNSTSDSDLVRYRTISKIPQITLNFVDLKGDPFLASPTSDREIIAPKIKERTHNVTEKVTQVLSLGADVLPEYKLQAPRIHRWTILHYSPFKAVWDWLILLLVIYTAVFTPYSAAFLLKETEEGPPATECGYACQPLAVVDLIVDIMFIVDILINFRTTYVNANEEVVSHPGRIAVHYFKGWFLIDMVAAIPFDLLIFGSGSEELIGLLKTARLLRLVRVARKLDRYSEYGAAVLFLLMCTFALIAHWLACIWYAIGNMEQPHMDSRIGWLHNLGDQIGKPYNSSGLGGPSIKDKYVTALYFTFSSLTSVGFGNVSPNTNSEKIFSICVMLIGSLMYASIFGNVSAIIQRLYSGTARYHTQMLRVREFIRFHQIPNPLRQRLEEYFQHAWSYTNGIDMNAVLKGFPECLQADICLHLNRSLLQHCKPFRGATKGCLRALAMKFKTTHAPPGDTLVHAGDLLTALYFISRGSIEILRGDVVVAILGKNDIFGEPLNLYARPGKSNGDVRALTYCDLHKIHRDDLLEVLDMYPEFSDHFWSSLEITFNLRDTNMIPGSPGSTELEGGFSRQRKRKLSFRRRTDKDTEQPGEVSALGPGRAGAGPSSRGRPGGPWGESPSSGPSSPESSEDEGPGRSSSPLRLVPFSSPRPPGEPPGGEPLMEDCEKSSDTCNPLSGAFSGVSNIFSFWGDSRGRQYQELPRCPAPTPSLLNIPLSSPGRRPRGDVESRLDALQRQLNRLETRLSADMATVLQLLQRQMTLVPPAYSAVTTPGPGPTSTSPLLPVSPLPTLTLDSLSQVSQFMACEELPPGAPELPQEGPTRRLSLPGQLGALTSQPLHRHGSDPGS
Another experiment deals with Cytochrome P450 2C19 (Homo sapiens, UniProt P33261). As to the kind of experiment: qHTS Assay for Inhibitors and Substrates of Cytochrome P450 2C19. [Related pubchem assays: 410 ]. In kind it is ADME. As to conditions: read-out: Potency.
Cytochrome P450 2C19, sequence (P33261 whole entry): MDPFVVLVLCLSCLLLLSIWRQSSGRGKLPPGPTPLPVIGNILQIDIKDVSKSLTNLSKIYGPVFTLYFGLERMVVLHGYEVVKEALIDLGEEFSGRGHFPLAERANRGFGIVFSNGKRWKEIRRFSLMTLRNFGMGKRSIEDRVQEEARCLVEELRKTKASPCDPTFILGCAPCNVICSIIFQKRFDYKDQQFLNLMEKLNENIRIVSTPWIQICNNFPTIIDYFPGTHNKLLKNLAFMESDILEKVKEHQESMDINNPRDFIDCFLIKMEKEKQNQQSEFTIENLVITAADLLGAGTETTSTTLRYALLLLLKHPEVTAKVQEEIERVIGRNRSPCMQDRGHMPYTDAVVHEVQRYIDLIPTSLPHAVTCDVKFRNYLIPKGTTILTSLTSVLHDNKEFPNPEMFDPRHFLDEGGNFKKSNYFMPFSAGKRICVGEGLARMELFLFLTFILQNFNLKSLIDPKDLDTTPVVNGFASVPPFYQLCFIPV
Another experiment has as its target Cytochrome P450 2C9 (Homo sapiens, UniProt P11712). Conditions: Potency.
Experiment [19] concerns Vero. The experiment is described as follows: inhibition of WNV-induced cytopathic effect – cell-based, CPE readout (AID 1621). Type of experiment: functional. Conditions: Chlorocebus sabaeus.
The test system of experiment [20] is Vero. As to the kind of experiment: cells. In kind it is functional, cell-based. Conditions: Chlorocebus sabaeus.
Experiment [21] is described as follows: A Cell Based Secondary Assay To Explore Cytotoxicity of Compounds that Sensitize Mycobacterium Tuberculosis to Beta-Lactam Antibiotics. In kind it is functional.
In a further experiment the test system is H4. As to the kind of experiment: Luminescence Cell-Based Dose Response HTS to Identify Activators of 5'UTR Stem-Loop Driven Prion Protein mRNA Translation in H4 Neuroglioblastoma Cells. [Related pubchem assays: 1829 (Project Summary), 1814 (Primary HTS)]. In kind it is functional. As to conditions: Homo sapiens.
Experiment [22] can be described thus: Luminescence Cell-Based Dose Response to Identify Activators of Luciferase Translation or Activity in H4-C Neuroglioblastoma Cells. [Related pubchem assays: 1829 (Project Summary), 1814 (Primary HTS)]. Type of experiment: functional.
The nature of experiment [23]: Luminescence Cell-Based Dose Confirmation to Identify Activators of 5'UTR Stem-Loop Driven Alpha-Synuclein mRNA Translation in H4 Neuroglioblastoma Cells. [Related pubchem assays: 1829 (Project Summary), 1814 (Primary HTS)]. Type of experiment: functional.
Experiment [24] in a line: Luminescence Cell-Based Dose Confirmation HTS to Identify Activators of 5'UTR Stem-Loop Driven Alpha-Synuclein mRNA Translation in H4 Neuroglioblastoma Cells. [Related pubchem assays: 1829 (Project Summary), 1814 (Primary HTS)]. Type of experiment: functional.
Experiment [25] in a line: Luminescence Cell-Based Dose Response to Identify Activators of 5'UTR Stem-Loop Driven Prion Protein mRNA Translation in H4-C Neuroglioblastoma Cells. [Related pubchem assays: 1829 (Project Summary), 1814 (Primary HTS)]. Type of experiment: functional.
For experiment [26], the target named is Diphosphomevalonate decarboxylase (Streptococcus pneumoniae serotype 2 (strain D39 / NCTC 7466), UniProt Q9FD53). As to the kind of experiment: diphosphomevalonate decarboxylase inhibitor confirmation – biochemical, cuvette format, coupled NADH fluorescence (AID 1028). Type of experiment: functional.
Diphosphomevalonate decarboxylase, sequence (Q9FD53 whole entry): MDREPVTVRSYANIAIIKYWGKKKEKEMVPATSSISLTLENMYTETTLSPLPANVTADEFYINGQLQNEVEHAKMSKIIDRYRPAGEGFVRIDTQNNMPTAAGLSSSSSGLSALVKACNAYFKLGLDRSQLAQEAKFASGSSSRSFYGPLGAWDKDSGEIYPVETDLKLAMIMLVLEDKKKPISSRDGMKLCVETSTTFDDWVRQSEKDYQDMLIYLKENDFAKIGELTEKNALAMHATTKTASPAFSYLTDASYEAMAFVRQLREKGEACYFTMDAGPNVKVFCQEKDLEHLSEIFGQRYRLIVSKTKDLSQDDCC
The next experiment deals with T1, Aminopeptidase N (Plasmodium falciparum FcB1/Columbia, UniProt O96935).
T1 sequence (O96935 whole entry): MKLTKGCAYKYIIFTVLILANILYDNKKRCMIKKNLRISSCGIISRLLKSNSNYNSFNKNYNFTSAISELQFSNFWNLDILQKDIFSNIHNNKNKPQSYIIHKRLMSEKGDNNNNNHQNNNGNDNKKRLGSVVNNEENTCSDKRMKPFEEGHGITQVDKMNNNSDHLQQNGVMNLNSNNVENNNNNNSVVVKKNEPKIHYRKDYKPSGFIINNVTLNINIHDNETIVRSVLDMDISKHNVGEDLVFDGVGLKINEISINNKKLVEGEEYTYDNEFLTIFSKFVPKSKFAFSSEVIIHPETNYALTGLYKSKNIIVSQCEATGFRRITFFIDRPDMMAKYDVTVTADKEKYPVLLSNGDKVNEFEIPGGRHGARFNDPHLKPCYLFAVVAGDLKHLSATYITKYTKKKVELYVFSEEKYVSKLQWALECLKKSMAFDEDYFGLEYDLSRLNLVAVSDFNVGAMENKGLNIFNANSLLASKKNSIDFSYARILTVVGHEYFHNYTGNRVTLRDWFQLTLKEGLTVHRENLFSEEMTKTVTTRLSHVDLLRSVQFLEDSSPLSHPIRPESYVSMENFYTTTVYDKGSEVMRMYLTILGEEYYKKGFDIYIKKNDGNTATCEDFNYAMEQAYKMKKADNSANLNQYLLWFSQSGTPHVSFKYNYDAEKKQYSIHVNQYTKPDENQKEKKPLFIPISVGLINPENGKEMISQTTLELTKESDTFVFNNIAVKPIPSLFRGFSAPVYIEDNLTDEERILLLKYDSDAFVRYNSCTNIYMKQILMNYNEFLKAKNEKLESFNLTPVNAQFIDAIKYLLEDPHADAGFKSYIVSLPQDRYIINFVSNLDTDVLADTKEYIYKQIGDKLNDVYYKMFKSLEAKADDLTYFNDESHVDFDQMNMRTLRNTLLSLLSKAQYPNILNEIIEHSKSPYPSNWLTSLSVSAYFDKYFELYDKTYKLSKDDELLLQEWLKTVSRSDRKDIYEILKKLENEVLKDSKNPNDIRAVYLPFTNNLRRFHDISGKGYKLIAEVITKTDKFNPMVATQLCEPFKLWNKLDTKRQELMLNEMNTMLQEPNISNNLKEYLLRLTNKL
As to the kind of experiment: malaria alanyl aminopeptidase activity blockers – biochemical, fluorogenic H-Leu-NHMec substrate, 1536-well (AID 1445). Details: species or system Plasmodium falciparum 3D7, 3D7.

A further experiment concerns the target Procathepsin L (Homo sapiens, UniProt P07711). The experiment is described as follows: CTSL1 protease inhibition – biochemical, QFRET, 1536-well, counter-screen for M1/M17 aminopeptidase inhibitor project, dose response (AID 2214).
For a further experiment, the target named is Aspartyl aminopeptidase (Plasmodium falciparum 3D7, UniProt Q8I2J3). The experiment is described as follows: Counterscreen for inhibitors of M1 and M17 aminopeptidases: QFRET-based biochemical high throughput dose response assay for inhibitors of the Plasmodium falciparum M18 Aspartyl Aminopeptidase (PFM18AAP). [Related PubChem assays: 1619 (Screening assay (M17LAP inhibitors).), 1445 (Screening assay (M1AAP inhibitors).)].
Aspartyl aminopeptidase, sequence (Q8I2J3 whole entry): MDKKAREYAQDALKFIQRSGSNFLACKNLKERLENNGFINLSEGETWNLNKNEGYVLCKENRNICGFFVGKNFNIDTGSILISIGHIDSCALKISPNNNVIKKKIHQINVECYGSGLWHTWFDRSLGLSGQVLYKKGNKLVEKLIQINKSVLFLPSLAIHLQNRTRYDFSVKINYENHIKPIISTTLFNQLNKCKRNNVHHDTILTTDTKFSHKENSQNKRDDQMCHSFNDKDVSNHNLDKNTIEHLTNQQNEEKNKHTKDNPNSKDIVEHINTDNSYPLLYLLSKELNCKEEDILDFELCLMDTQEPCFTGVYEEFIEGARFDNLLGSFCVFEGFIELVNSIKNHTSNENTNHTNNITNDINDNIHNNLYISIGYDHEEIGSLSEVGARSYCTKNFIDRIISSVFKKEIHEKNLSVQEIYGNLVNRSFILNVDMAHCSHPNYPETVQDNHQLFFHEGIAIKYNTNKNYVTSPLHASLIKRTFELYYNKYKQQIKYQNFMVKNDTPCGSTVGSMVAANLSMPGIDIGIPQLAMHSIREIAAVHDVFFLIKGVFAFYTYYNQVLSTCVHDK

Nonstructural protein 1, sequence (Q194T2 whole entry): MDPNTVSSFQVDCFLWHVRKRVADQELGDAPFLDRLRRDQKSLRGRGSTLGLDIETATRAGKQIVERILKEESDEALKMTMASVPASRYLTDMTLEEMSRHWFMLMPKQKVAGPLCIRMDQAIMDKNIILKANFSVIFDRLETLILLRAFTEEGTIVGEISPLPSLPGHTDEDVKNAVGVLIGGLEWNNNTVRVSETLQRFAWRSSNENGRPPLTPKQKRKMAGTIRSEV
Cytochrome P450 2C9, sequence (P11712 whole entry): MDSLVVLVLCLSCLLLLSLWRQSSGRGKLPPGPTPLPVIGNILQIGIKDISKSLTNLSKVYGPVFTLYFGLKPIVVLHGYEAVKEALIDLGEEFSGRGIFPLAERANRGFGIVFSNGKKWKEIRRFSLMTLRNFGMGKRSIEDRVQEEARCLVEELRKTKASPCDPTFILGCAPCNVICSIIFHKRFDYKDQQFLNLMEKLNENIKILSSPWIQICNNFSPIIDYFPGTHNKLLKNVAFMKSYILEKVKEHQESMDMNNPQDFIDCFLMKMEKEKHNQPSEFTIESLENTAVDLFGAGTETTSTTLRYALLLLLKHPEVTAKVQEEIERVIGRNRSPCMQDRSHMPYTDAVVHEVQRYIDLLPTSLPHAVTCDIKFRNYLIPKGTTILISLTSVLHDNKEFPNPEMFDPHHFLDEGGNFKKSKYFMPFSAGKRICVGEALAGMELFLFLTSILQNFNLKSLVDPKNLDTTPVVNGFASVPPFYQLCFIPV
Procathepsin L, sequence (P07711 whole entry): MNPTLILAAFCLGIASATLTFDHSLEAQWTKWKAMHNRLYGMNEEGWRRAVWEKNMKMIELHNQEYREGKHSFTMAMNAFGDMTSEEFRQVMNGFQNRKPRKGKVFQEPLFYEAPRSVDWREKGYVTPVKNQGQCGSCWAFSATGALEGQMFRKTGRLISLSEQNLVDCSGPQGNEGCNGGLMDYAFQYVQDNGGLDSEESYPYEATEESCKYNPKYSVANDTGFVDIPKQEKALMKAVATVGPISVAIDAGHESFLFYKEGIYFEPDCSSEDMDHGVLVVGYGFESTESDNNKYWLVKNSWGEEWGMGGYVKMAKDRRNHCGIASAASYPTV

As to `CC(=O)NC(c1cccc([N+](=O)[O-])c1)c1ccc2cccnc2c1O` (centres undefined), the AC50 with INS1 is 0.521 µM (active); in the experiment on HEK293 [2], 4.67 µM (active); in [4], 0.889 µM (active); in [7] it was > 70 µM (inactive); in experiment [17], 0.887 µM (active). Also, the IC50 in the experiment on HEK293 [1] was > 20 µM (inactive); at Nonstructural protein 1 it was 9.19 µM (active); in the experiment on HEK293 [5], 19.8 µM (active); in the experiment on HEK293 [8] it was > 20 µM (inactive); in the experiment on HEK293 [12] it was > 20 µM (inactive); in experiment [15], 1.35 µM (active). The EC50 in “cells [3]” is 4.94 µM (active); in the experiment with HEK293 [6] it was > 20 µM (inactive); in [9], > 20 µM (inactive); in the experiment “cells [10]” it was > 350 µM (not active); in the experiment on BJ [11], 1.7 µM (inconclusive); in experiment [13], 1.96 µM (inconclusive). The EC50 was 10.7 µM (active) with BJ [14] and 7.23 µM (inconclusive) in the experiment with BJ [16].

`CCOC(=O)N1CCN(C(=O)c2ccc(CN(c3ccc(C)c(C)c3)S(C)(=O)=O)cc2)CC1`: in experiment [18], the EC50 is 9.85 µM (active).

Take `CC(C)C[C@@H](CC(=O)N[C@@H](CCC(=O)O)CC(=O)O)NC(=O)[C@@H]1CNCC[C@H]1NC(=O)C[C@H](CCCN)NC(=O)C[C@H](CO)NC(=O)[C@@H]1CNCC[C@H]1N`: the AC50 on Cytochrome P450 2C19 is 31.6 µM (inconclusive); on Cytochrome P450 2C9, 25.1 µM (inconclusive).

For `NC1=C(c2nc(-c3ccc(Cl)cc3)cs2)C(=O)CN1CCCN1CCOCC1`, the 50% inhibitory concentration (IC50) with Vero [19] was 24.2 µM (active); in the experiment with Vero [20], 22 µM (active). Further, the 50% cytotoxic concentration (CC50) in experiment [21] is > 40 µM (active).

`Cc1cc(-c2nnc(S)o2)c(C)n1-c1ccccc1`: the EC50 in the experiment on H4 is 75.3 µM (active); in experiment [22], > 12 µM (not active); in experiment [23] it was 1.19 µM (active); in experiment [24], < 0.1 µM (active); in experiment [25], 2.02 µM (active).

Take `Cc1ccc(-n2sc3ccccc3c2=O)cc1C(=O)N1CCCCC1`: the IC50 in [26] was 19.7 µM (active).

As for `COc1ccc(OC)c(/C=C2\SC(=S)N(C(C(=O)O)c3ccccc3)C2=O)c1` (centres undefined), the IC50 is 12.1 µM (active) at Aminopeptidase N, > 59.6 µM (not active) at Procathepsin L and > 73.5 µM (not active) against Aspartyl aminopeptidase.
